Laboratory results taken from PubChem BioAssay (NCI).
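How tested: cells in 96-well plates exposed to compound for 48 hours at five concentrations. Here, GI50 denotes the concentration required for 50% inhibition of growth. Definition used: TGI = concentration required for complete inhibition of growth.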

Tests used:
Assay in all cases: inhibition of tumour cell growth, NCI panel, 48 h
UO-31 renal = system: UO-31 renal
UACC-257 melanoma = system: UACC-257 melanoma
SK-OV-3 ovarian = system: SK-OV-3 ovarian
TK-10 renal = system: TK-10 renal
UACC-62 melanoma = system: UACC-62 melanoma
NCI-H23 lung = system: NCI-H23 lung
HL-60(TB) leukemia = system: HL-60(TB) leukemia
NCI-H460 lung = system: NCI-H460 lung
M14 melanoma = system: M14 melanoma
OVCAR-4 ovarian = system: OVCAR-4 ovarian

SMILES | TGI (UO-31 renal) [µM] | TGI (UACC-257 melanoma) [µM] | TGI (SK-OV-3 ovarian) [µM] | TGI (TK-10 renal) [µM] | TGI (UACC-62 melanoma) [µM] | TGI (NCI-H23 lung) [µM] | TGI (HL-60(TB) leukemia) [µM] | TGI (NCI-H460 lung) [µM] | TGI (M14 melanoma) [µM] | TGI (OVCAR-4 ovarian) [µM] | GI50 (UO-31 renal) [µM] | GI50 (M14 melanoma) [µM] | GI50 (UACC-257 melanoma) [µM] | GI50 (SK-OV-3 ovarian) [µM] | GI50 (OVCAR-4 ovarian) [µM] | GI50 (TK-10 renal) [µM] | GI50 (UACC-62 melanoma) [µM] | GI50 (NCI-H23 lung) [µM] | GI50 (NCI-H460 lung) [µM] | GI50 (HL-60(TB) leukemia) [µM]
O=C(O)c1nc(-c2ccc(Cl)c(Cl)c2)nc2ccc(Cl)cc12 | > 100 | > 100 | 43.3 | > 100 | > 100 | > 100 | 54.2 | > 100 | – | – | – | – | – | – | – | – | – | – | – | –
CCOC(=O)/C(O)=C(/C(=O)OC)c1ccc(Cl)cc1 | > 100 | > 100 | > 100 | > 100 | > 100 | > 100 | – | > 100 | > 100 | > 100 | – | – | – | – | – | – | – | – | – | –
COc1cc(OC)c(C(=O)/C=C/c2cccc(C#N)c2)c(OC)c1 | 4.86 | 8.69 | > 50 | 5.52 | 4.92 | 4.59 | – | 2.86 | 4.68 | 10 | 1.13 | 0.978 | 2.1 | 1.82 | 2.03 | 1.63 | 1.22 | 1.21 | 1.1 | –
Oc1c(Cl)c(Cl)c(O)c2c1CCCC2 | 5.28 | 30.5 | 27.2 | 9.14 | 27 | 40.8 | – | 31.9 | 32.5 | – | – | – | – | – | – | – | – | – | – | –
CN(C)C(=O)c1cnc2oc3ccc(O)cc3c2c1-c1ccccc1 | > 25 | > 25 | > 25 | > 25 | – | > 25 | > 25 | > 25 | > 25 | – | 20.5 | > 25 | > 25 | 24.6 | – | > 25 | – | 11.5 | 16.2 | > 25
CCC[CH2][Sn]1([CH2]CCC)[O]C2C(CO)OC(n3ccc(N)nc3=O)C2[O]1 (stereo not drawn) | 2.43 | 2.61 | 3.38 | 2.38 | 2.41 | 3.08 | – | 3.6 | 3.09 | 2.68 | 1.16 | 1.55 | 1.28 | 1.82 | 1.33 | 1.15 | 1.12 | 1.35 | 1.79 | –
COc1cc([N+](=O)[O-])c(OC)cc1-c1nc2sccn2c1/C=N/N=C(N)N | > 100 | 54.2 | 94.8 | 50.6 | 70.5 | 71.9 | – | > 100 | > 100 | > 100 | 42.5 | 40.8 | 21.5 | 36.5 | 52.2 | 18 | 27.7 | 14.8 | 28.3 | –
CN(C)c1ccc(C(=NO)c2ccc(N(C)C)cc2)cc1 | > 100 | > 100 | > 100 | 98.6 | > 100 | > 100 | > 100 | > 100 | – | > 100 | 4.73 | – | 5.12 | 3.57 | 89 | 7.47 | 2.11 | 5.42 | 3.23 | 1.62
N#Cc1nc2c(S(=O)(=O)c3ccc(Cl)cc3)c(N)n(CCCN3CCOCC3)c2nc1C#N | > 100 | 22.7 | > 100 | 23.6 | 31.1 | 42.7 | 6.55 | 40.9 | – | > 100 | 4.58 | – | 5.91 | 27.1 | 4.78 | 10.1 | 10.8 | 7.41 | 15.8 | 2.14
COc1cccc(-c2cc3c4c(nc5ccccc53)C(=O)c3cccnc3-c4n2)c1 | 8.45 | 4.33 | 25.7 | > 64.8 | 10.5 | 4.28 | – | – | 2.36 | 8.5 | 2.02 | 0.863 | 1.06 | 8.57 | 1.94 | 5.03 | 3.88 | 1.47 | 1.07 | –
CCN(CC)c1oc(N(CC)CC)c(C(=O)Nc2ccccn2)c(=O)c1C(C)=O | > 100 | – | > 100 | > 100 | > 100 | > 100 | – | > 100 | > 100 | – | – | – | – | – | – | – | – | – | – | –
CCOC(=O)c1cc2c(n1Cc1cc(OC)c(OC)c(OC)c1)-c1oncc1CCC2 | > 67.4 | 28.5 | 3.55 | > 100 | > 40.3 | > 43.2 | 0.765 | 13.7 | – | > 67.4 | 0.303 | – | 0.177 | 0.185 | 1.36 | 64.9 | 0.0666 | 0.388 | 0.284 | 0.221
O=C(NC(=Nc1ccccc1)SCCSC(=Nc1ccccc1)NC(=O)c1cccs1)c1cccs1 | 92.8 | > 100 | – | > 100 | > 100 | > 100 | – | > 100 | > 100 | > 100 | – | – | – | – | – | – | – | – | – | –
CCOc1ccc(NC(=O)C(=O)C(C(=O)c2ccc3ccccc3c2)C2OC(=O)c3ccccc32)cc1 (stereo not drawn) | 34 | 81.9 | > 100 | > 100 | 27.2 | 33 | – | > 100 | 42.2 | 44.5 | – | – | – | – | – | – | – | – | – | –
O=C(N/C(=C\c1ccc(/C=C(\NC(=O)c2ccccc2)c2nc3ccccc3[nH]2)cc1)c1nc2ccccc2[nH]1)c1ccccc1 | > 100 | > 100 | > 100 | > 100 | > 100 | > 100 | – | > 100 | > 100 | > 100 | – | – | – | – | – | – | – | – | – | –
COc1ccc(C(=O)/C=C/c2cccc(Nc3ccnc4cc(Cl)ccc34)c2)cc1 | – | – | 7.98 | 4.59 | – | > 100 | > 100 | > 100 | > 100 | – | – | 1.6 | – | 2.22 | – | 1.64 | – | 1.49 | 2.23 | 2.98
O=[N+]([O-])c1ccc(N=Nc2ccc(O)c3ccccc23)cc1 | > 100 | 14.6 | 47.7 | > 100 | 32.9 | 6.88 | 21 | 27.1 | – | > 100 | 5.42 | – | 3.6 | 11.9 | 2.83 | 2.81 | 4.76 | 1.79 | 3.49 | 5.39
C=C1c2ccoc2C[C@H]2[C@H]1CC[C@@]1(O)[C@@](C)(C(=O)OC)CCC[C@]21C | > 100 | > 100 | > 100 | > 100 | 30.7 | > 100 | – | 49.9 | 82.6 | > 100 | 33.9 | 29.3 | 35.7 | > 100 | 86.5 | > 100 | 13.7 | 44.4 | 18 | –
Cc1cn2c(/C=C3/C(=O)Nc4ccc(O)cc43)c(C)nc2s1 | > 100 | > 47.1 | > 28.8 | 26 | 11.4 | > 68.9 | – | 14.5 | > 39.1 | > 100 | 26.5 | 2.29 | 7.85 | 3.8 | > 51.4 | 2.43 | 1.16 | 7.12 | 2.56 | –
CCN1C(=O)N(CC)C2C1NN=c1s/c(=C\c3ccccn3)c(=O)n12 (stereo not drawn) | > 100 | > 100 | > 100 | > 100 | > 100 | > 100 | 3.42 | > 100 | – | > 100 | 2.51 | – | > 100 | 3.92 | > 100 | 40.7 | 0.833 | 3.82 | 2.07 | 0.487
COc1ccc(N(/C=C/C(=O)C(F)(F)F)CC(=O)c2ccc(F)cc2)cc1 | > 100 | 64.8 | > 100 | 96.4 | 38.3 | 84.9 | – | 50 | 56.7 | > 100 | 36.3 | 20.6 | 23.7 | 42.9 | 45.3 | 42.1 | 12 | 30.1 | 23.5 | –
Nc1ncnc2c1c(-c1ccc(Oc3ccccc3)cc1)nn2C[C@@H]1SSC[C@H]1O | 3.55 | 7.56 | 4.33 | 3.16 | 0.882 | 8.17 | 6.79 | 1.45 | – | > 83.4 | 1.07 | – | 1.44 | 0.92 | 2.12 | 1.49 | 0.264 | 0.916 | 0.281 | 1.84
COc1ccc2nc3cc(Cl)ccc3c(SCC(=O)Nc3ccccc3-c3ccccc3NC(=O)CSc3c4ccc(Cl)cc4nc4ccc(OC)cc34)c2c1 | > 100 | > 100 | > 100 | > 100 | > 100 | > 100 | – | > 100 | > 100 | > 100 | – | – | – | – | – | – | – | – | – | –
